Patent US7622494B2, “Chemical compounds” (SmithKline Beecham Corporation, priority 2003, dated 2009)
Counter-ions that a name gives are not always drawn.

System: episomal HPV-16 DNA in W12-20850 cells
Assay: W-12 cellular assay (hybrid capture quantification of episomal HPV-16 DNA)
Type: cell-based, HPV16
Conditions: Human papillomavirus 16, 96 h; W12-20850 cells, four days incubation, episomal HPV-16 DNA by hybrid capture, inhibition relative to untreated control cells; read-out: W-12
Method: Compounds of the current invention are believed useful in the treatment and/or prophylaxis of conditions and diseases associated with HPV infection. Activity mediated through HPV was determined using the following W-12 cellular assay.
The W12 cell line used contains HPV16 DNA and was derived from a low-grade cervical dysplasia tissue by Margaret Stanley and subsequently clonally selected by Paul Lambert (University of Wisconsin). One of these clones, W12-20850, contains 1000 copies of episomal HPV16 DNA and was used in the cell-based assay. W12-20850 cells were routinely cultured with a gamma-irradiated (6000 rads) feeder layer of 3T3 cells. Assays, however, were run in the absence of a 3T3 feeder layer. W12-20850 and 3T3 cells were routinely split when they were sub-confluent. W12-20850 were grown in W12 Medium which is constituted of 25% DMEM (Gibco BRL, Cat # 12430-047), 75% F12 Media (Gibco BRL, Cat # 11765-021) and 2.5% FBS. The additives include […] Adenine (Sigma, Cat # A-9795), […] Hydrocortisone (Calbiochem, Cat # 386698); 5.0 mg/ml Bovine Insulin (Sigma, Cat # I-1882), 8.4 ng/ml cholera toxin (Fluka, Cat # 26694) and 10 ng/ml EGF (Invitrogen, Cat # 13247-051). 3T3 cells were grown in DMEM containing 10% FBS. Cell lines were incubated at 37° C., in the presence of 5% CO2.
For the assay, W12-20850 cells were seeded into a 96 well plate-containing compound. Plates were incubated at 37° C. in the presence of 5% CO2, for four days. On the fourth day, cells were lysed and the amount of episomal. HPV-16 DNA was quantified using a non-radioactive hybrid capture technique with HPV-16 specific capture and detection probes. The percent inhibition relative to untreated control cells' was then determined.
The hybrid capture assay is run in a 96 well plate format. Hybridization plates (Nunc Maxisorb Cat # 450320) were coated with a mixture of capture probe and ReactiBind solution for at least 4 hours and then washed with 0.2×SSC, 0.05% Tween20 (SSCT) prior to blocking with […] of 0.2 N NaOH, 1% Igepal, 10 mg/ml hsDNA for 6-8 hours. The hybridization was carried out by mixing 27 μl of lysed cells with 45 μl of denatured detection probe in 6M guanidine isothiocyanate. To prevent evaporation, 50 μl of mineral oil was added to each well. The plate was then heated to 90° C. for 6.5 minutes and the hybridization continued at 42° C. overnight. Assay plates were washed 6 times with SSC/T. Anti-digoxigenin HRP-conjugated Ab (Boehringer Mannheim 1207733, 1:5000) was incubated in the wells for 30 min at room temperature and washed with PBS/0.05% Tween-20. SuperSignal LBA substrate (Pierce Cat # 37070) was added, and chemiluminescence was measured using Wallac 1420 Victor plate reader.

Row | IC50 [nM] | Compound
1 | 400 | Cc1ccc2[nH]c3c(c2c1)CCCC3NC1Cc2ccccc2C1 (stereo not drawn) [Example 41, N-(2.3-Dihydro-1H-inden-2-yl)-6-methyl-2,3,4,9-tetrahydro-1H-carbazol-1-amine hydrochloride-salt]
2 | 3300 | c1ccc2c(c1)CC(NC1CCCc3c1[nH]c1ccccc31)C2 (stereo not drawn) [Example 20, N-(2.3-Dihydro-1H-inden-2-yl)-2,3,4,9-tetrahydro-1H-carbazol-1-amine hydrochloride salt]
3 | 165 | COC(=O)NC1CCCc2c1[nH]c1ccc(Br)cc21 (stereo not drawn) [Example 66, Methyl 6-bromo-2,3,4,9-tetrahydro-1H-carbazol-1-ylcarbamate]
4 | 122 | C[C@@H](N[C@@H]1CCc2c1[nH]c1ccc(Br)cc21)c1ccccc1 [Example 51, (3R)-7-Bromo-N-[(1R)-1-phenylethyl]-1,2,3,4-tetrahydrocyclooenta[b]indol-3-amine hydrochloride salt]
5 | 3900 | Brc1ccc2c3c([nH]c2c1)C(NC1Cc2ccccc2C1)CCC3 (stereo not drawn) [Example 63, 7-Bromo-N-(2.3-dihydro-1H-inden-2-yl)-2,3,4,9-tetrahydro-1H-carbazol-1-amine hydrochloride]
6 | 1000 | C[C@@H](NC1CCCCc2c1[nH]c1ccc(Br)cc21)c1ccccc1 (stereo partly drawn) [Example 55, 2-Bromo-N-[(1R)-1-phenylethyl]-5,6,7,8,9,10-hexahydrocycloheota[b]indol-6-amine hydrochloride]

Same assay, conditions: Human papillomavirus 16, W12-20850, 96 h, read-out: W-12

Row | Compound | IC50 [nM]
7 | Cc1ccc2[nH]c3c(c2c1)CCC[C@@H]3N[C@@H](C)c1ccccc1 [Example 46, (1S)-6-Methyl-N-[(1S)-1-phenylethyl]-2,3,4,9-tetrahydro-1H-carbazol-1-amine hydrochloride salt] | 8600
8 | c1ccc2c3c([nH]c2c1)C(NC1CCCCC1)CCC3 (stereo not drawn) [Example 19, N-Cyclohexyl-2,3,4,9-tetrahydro-1H-carbazol-1-amine hydrochloride salt] | 14500
9 | Brc1cccc2c3c([nH]c12)C(NCc1ccccc1)CCC3 (stereo not drawn) [Example 71, N-Benzyl-8-bromo-2,3,4,9-tetrahydro-1H-carbazol-1-amine hydrochloride] | 11400
10 | Cc1ccc2[nH]c3c(c2c1)CCCC3N[C@H](C)c1ccccc1 (stereo partly drawn) [Example 42, 6-Methyl-N-[(1R)-1-phenylethyl]-2,3,4,9-tetrahydro-1H-carbazol-1-amine hydrochloride salt] | 540
11 | Cc1ccc2[nH]c3c(c2c1)CCC[C@H]3N[C@@H](C)c1ccccc1 [Example 47, (1R)-6-Methyl-N-[(1S)-1-phenylethyl]-2,3,4,9-tetrahydro-1H-carbazol-1-amine hydrochloride salt] | 160
12 | Brc1ccc2[nH]c3c(c2c1)CCCCC3NCc1ccccc1 (stereo not drawn) [Example 54, N-Benzyl-2-bromo-5,6,7,8,9,10-hexahydrocyclohepta[b]indol-6-amine hydrochloride] | 1100
13 | Brc1ccc2[nH]c3c(c2c1)CCCC3NCc1ccccc1 (stereo not drawn) [Example 29, N-Benzyl-6-bromo-2,3,4,9-tetrahydro-1H-carbazol-1-amine hydrochloride salt] | 115
14 | CC(C)(NC1CCCc2c1[nH]c1ccc(Br)cc21)c1ccccc1 (stereo not drawn) [Example 33, 6-Bromo-N-(1-methyl-1-phenylethyl)-2,3,4,9-tetrahydro-1H-carbazol-1-amine hydrochloride salt] | 750
15 | Cc1ccc2[nH]c3c(c2c1)CCC[C@@H]3N[C@H](C)c1ccccc1 [Example 44, (1S)-6-Methyl-N-[(1R)-1-phenylethyl]-2,3,4,9-tetrahydro-1H-carbazol-1-amine hydrochloride salt] | 8400
16 | Cc1ccc2[nH]c3c(c2c1)CCCC3NCCc1ccccc1 (stereo not drawn) [Example 40, 6-Methyl-N-(2-phenylethyl)-2,3,4,9-tetrahydro-1H-carbazol-1-amine hydrochloride salt] | 2700
17 | C[C@@H](NC1CCCc2c1[nH]c1ccc([N+](=O)[O-])cc21)c1ccccc1 (stereo partly drawn) [Example 49, 6-Nitro-N-[(1R)-1-phenylethyl]-2,3,4,9-tetrahydro-1H-carbazol-1-amine hydrochloride salt] | 83
18 | C[C@@H](N[C@H]1CCCc2c1[nH]c1ccc(Br)cc21)c1ccccc1 [Example 32, (1S)-6-Bromo-N-[(1R)-1-Phenylethyl]-2,3,4,9-tetrahydro-1H-carbazol-1-amine hydrochloride salt] | 525
19 | COc1ccc(CNC2CCCc3c2[nH]c2ccccc32)cc1 (stereo not drawn) [Example 16, N-(4-Methoxybenzyl)-2,3,4,9-tetrahydro-1H-carbazol-1-amine hydrochloride salt] | 1500
20 | Brc1ccc2c3c([nH]c2c1)C(NCc1ccccc1)CCC3 (stereo not drawn) [Example 61, N-Benzyl-7-bromo-2,3,4,9-tetrahydro-1H-carbazol-1-amine hydrochloride] | 11000
21 | Brc1ccc2[nH]c3c(c2c1)CCCC3NCCc1ccccc1 (stereo not drawn) [Example 26, 6-Bromo-N-(2-phenylethyl)-2,3,4,9-tetrahydro-1H-carbazol-1-amine hydrochloride salt] | 410
